Measured values from patent US10941152B2, “Pyrazole compounds as modulators of FSHR and uses thereof” (TOCOPHERX, INC., priority 2014, dated 2021).

How the values were obtained:
[1] = target: T1, FSHR (Homo sapiens, UniProt P23945); test: EC50 of cyclic AMP production in CHO FSHR cells + EC20 FSH (Assay A); format: cell-based; details: cyclic AMP production in CHO FSHR cells + EC20 FSH (0.265 pM), HTRF
T1 construct: expressed in transfected cells; host or cells: CHO (Cho-FSHR-LUC-1-1-43)
T1 sequence (P23945 18-695): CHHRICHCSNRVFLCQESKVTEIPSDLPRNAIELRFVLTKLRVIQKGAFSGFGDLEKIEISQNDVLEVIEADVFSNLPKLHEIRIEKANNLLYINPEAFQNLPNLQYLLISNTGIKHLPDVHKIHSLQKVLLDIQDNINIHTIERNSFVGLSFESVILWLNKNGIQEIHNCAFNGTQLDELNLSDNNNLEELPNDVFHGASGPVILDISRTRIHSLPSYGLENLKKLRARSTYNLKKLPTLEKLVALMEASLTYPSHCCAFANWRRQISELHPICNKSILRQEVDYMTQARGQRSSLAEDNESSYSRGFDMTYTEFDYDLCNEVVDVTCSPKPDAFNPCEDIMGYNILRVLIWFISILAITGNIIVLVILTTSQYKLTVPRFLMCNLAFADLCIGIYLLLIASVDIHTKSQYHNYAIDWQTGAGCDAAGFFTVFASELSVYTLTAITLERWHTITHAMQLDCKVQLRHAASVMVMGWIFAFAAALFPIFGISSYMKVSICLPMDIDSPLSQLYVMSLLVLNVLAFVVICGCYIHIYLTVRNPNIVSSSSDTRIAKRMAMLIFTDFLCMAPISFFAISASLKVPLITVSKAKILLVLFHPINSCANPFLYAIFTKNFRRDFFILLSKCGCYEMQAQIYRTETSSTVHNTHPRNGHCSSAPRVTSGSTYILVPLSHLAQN
Summary of the method: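 CHO cells expressing FSHR, stimulated 1 h at 37° C with compound plus EC20 FSH (0.265 pM final) and 200 μM IBMX. cAMP measured by HTRF (665/620 nm ratio) after 1 h at room temperature; effect expressed relative to maximum response of FSH standard.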

[2] = target: T2, follicle-stimulating hormone (FSH) receptor (Rattus norvegicus, UniProt P20395); test: Rat granulosa EC50 FSH (Assay B); format: cell-based
T2 construct: endogenous in cells; host or cells: rat granulosa cells
T2 sequence (P20395 18-692): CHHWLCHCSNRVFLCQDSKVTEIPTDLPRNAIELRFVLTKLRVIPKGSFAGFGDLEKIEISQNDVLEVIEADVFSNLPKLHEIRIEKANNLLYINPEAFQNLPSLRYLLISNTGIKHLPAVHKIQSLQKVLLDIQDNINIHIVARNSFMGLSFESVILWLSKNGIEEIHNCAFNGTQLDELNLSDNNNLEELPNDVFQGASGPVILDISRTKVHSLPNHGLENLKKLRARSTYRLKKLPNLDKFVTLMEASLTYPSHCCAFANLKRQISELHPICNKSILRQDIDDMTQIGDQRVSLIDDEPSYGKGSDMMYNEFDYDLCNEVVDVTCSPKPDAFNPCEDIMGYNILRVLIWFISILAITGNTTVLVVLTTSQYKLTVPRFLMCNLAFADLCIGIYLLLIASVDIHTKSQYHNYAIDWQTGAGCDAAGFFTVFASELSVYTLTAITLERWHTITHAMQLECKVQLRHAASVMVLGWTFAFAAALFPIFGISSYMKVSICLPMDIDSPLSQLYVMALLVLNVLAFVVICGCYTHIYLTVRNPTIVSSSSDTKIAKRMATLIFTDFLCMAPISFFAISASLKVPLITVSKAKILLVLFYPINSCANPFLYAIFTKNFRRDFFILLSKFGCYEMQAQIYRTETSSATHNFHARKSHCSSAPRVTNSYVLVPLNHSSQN
Protocol: Example 25. Rat granulosa EC50 FSH (Assay B)
The assay was performed pursuant to the teaching of Yanofsky et al. (2006) Allosteric activation of the follicle-stimulating hormone (FSH) receptor by selective, nonpeptide agonists (JBC 281(19): 13226-13233, which is incorporated by reference in the disclosure of the invention).

Compound	EC50 [1]	EC50 [2]
COc1cc(C(N)=O)cc(-c2cc3c(cc2OC)OCc2c(C(=O)N(C)C(C)(C)C)nn(-c4cc(Cl)cc(Cl)c4)c2-3)n1 [Compound 115, N-tert-butyl-8-(4-carbamoyl-6-methoxypyridin-2-yl)-1-(3,5-dichlorophenyl)-7-methoxy-N-methyl-1,4-dihydrochromeno[4,3-c]pyrazole-3-carboxamide]	< 10 nM	101 to 500 nM
COc1cc2c(cc1-c1cc(F)cc(C(N)=O)c1)-c1c(c(C(=O)N(C)C(C)(C)C)nn1-c1cc(Cl)cc(Cl)c1)CO2 [Compound 97, N-tert-butyl-8-(3-carbamoyl-5-fluorophenyl)-1-(3,5-dichlorophenyl)-7-methoxy-N-methyl-1,4-dihydrochromeno[4,3-c]pyrazole-3-carboxamide]	< 10 nM	< 10 nM
COc1cc2c(cc1-c1ccn(C)n1)-c1c(c(C(=O)N(CCO)C(C)(C)C)nn1-c1ccsc1)CO2 [Compound 121, N-tert-butyl-N-(2-hydroxyethyl)-7-methoxy-8-(1-methyl-1H-pyrazol-3-yl)-1-(thiophen-3-yl)-1,4-dihydrochromeno[4,3-c]pyrazole-3-carboxamide]	10 to 100 nM	> 500 nM
COc1cc(F)cc(-n2nc(C(=O)N(C)C(C)(C)C)c3c2-c2cc(-c4cncc(C#N)c4)c(OC)cc2OC3)c1 [Compound 54, N-tert-butyl-8-(5-cyanopyridin-3-yl)-1-(3-fluoro-5-methoxyphenyl)-7-methoxy-N-methyl-1,4-dihydrochromeno[4,3-c]pyrazole-3-carboxamide]	< 10 nM	10 to 100 nM
COc1cc2c(cc1-c1ccn(C)n1)-c1c(c(C(=O)N(C)C(C)(C)C)nn1-c1cc(F)cc(F)c1)CO2 [Compound 48, N-tert-butyl-1-(3,5-difluorophenyl)-7-methoxy-N-methyl-8-(1-methyl-1H-pyrazol-3-yl)-1,4-dihydrochromeno[4,3-c]pyrazole-3-carboxamide]	10 to 100 nM	101 to 500 nM
COc1cc2c(cc1-c1ccn(C)n1)-c1c(c(C(=O)N3CCOCC3(C)C)nn1-c1cc(F)cc(Cl)c1)CO2 [Compound 29, (1-(3-chloro-5-fluorophenyl)-7-methoxy-8-(1-methyl-1H-pyrazol-3-yl)-1,4-dihydrochromeno[4,3-c]pyrazol-3-yl)(3,3-dimethylmorpholino)methanone]	10 to 100 nM	101 to 500 nM
COc1cc2c(cc1-c1cnn(CC(=O)O)c1)-c1c(c(C(=O)N(C)C(C)(C)C)nn1-c1cc(Cl)cc(Cl)c1)CO2 [Compound 81, 2-(4-(3-(tert-butyl(methyl)carbamoyl)-1-(3,5-dichlorophenyl)-7-methoxy-1,4-dihydrochromeno[4,3-c]pyrazol-8-yl)-1H-pyrazol-1-yl)acetic acid]	10 to 100 nM	101 to 500 nM
COc1cc2c(cc1-c1ccccc1F)-c1c(c(C(=O)N(C)C(C)(C)C)nn1-c1ccsc1)CO2 [Compound 63, N-tert-butyl-8-(2-fluorophenyl)-7-methoxy-N-methyl-1-(thiophen-3-yl)-1,4-dihydrochromeno[4,3-c]pyrazole-3-carboxamide]	10 to 100 nM	101 to 500 nM
COc1cc(OC)cc(-n2nc(C(=O)N3CCOCC3(C)C)c3c2-c2cc(-c4cncc(C#N)c4)c(OC)cc2OC3)c1 [Compound 44, 5-(1-(3,5-dimethoxyphenyl)-3-(3,3-dimethylmorpholine-4-carbonyl)-7-methoxy-1,4-dihydrochromeno[4,3-c]pyrazol-8-yl)nicotinonitrile]	< 10 nM	10 to 100 nM
COc1cc2c(cc1-c1cc(C)cnc1F)-c1c(c(C(=O)N(C)C(C)(C)C)nn1-c1ccsc1)CO2 [Compound 62, N-tert-butyl-8-(2-fluoro-5-methylpyridin-3-yl)-7-methoxy-N-methyl-1-(thiophen-3-yl)-1,4-dihydrochromeno[4,3-c]pyrazole-3-carboxamide]	< 10 nM	10 to 100 nM
COc1cc2c(cc1-c1cccnc1C#N)-c1c(c(C(=O)N(C)C(C)(C)C)nn1-c1cc(Cl)cc(Cl)c1)CO2 [Compound 14, N-tert-butyl-8-(2-cyanopyridin-3-yl)-1-(3,5-dichlorophenyl)-7-methoxy-N-methyl-1,4-dihydrochromeno[4,3-c]pyrazole-3-carboxamide]	< 10 nM	10 to 100 nM
COc1cc2c(cc1-c1cncc(C(N)=O)c1C)-c1c(c(C(=O)N(C)C(C)(C)C)nn1-c1cc(Cl)cc(Cl)c1)CO2 [Compound 116, N-tert-butyl-8-(5-carbamoyl-4-methylpyridin-3-yl)-1-(3,5-dichlorophenyl)-7-methoxy-N-methyl-1,4-dihydrochromeno[4,3-c]pyrazole-3-carboxamide]	< 10 nM	10 to 100 nM
COc1cc2c(cc1-c1cncc(C(N)=O)c1C)-c1c(c(C(=O)N(C)C(C)(C)C#N)nn1-c1cc(F)cc(F)c1)CO2 [Compound 119, 8-(5-carbamoyl-4-methylpyridin-3-yl)-N-(2-cyanopropan-2-yl)-1-(3,5-difluorophenyl)-7-methoxy-N-methyl-1,4-dihydrochromeno[4,3-c]pyrazole-3-carboxamide]	< 10 nM	101 to 500 nM

Next, values leading:

EC50 [1]	EC50 [2]	Compound
< 10 nM	10 to 100 nM	COc1cc2c(cc1-c1cncc(NC(N)=O)c1)-c1c(c(C(=O)N(C)C(C)(C)C)nn1-c1cc(Cl)cc(Cl)c1)CO2 [Compound 183, N-tert-butyl-1-(3,5-dichlorophenyl)-7-methoxy-N-methyl-8-(5-ureidopyridin-3-yl)-1,4-dihydrochromeno[4,3-c]pyrazole-3-carboxamide]
< 10 nM	10 to 100 nM	COc1cc(Cl)cc(-n2nc(C(=O)N(C)C(C)(C)C)c3c2-c2cc(-c4cncc(C(N)=O)c4)c(OC)cc2OC3)c1 [Compound 156]
10 to 100 nM	10 to 100 nM	COc1cc2c(cc1-c1cccc(CO)c1F)-c1c(c(C(=O)N(C)C(C)(C)C)nn1-c1cc(Cl)cc(Cl)c1)CO2 [Compound 195, N-tert-butyl-1-(3,5-dichlorophenyl)-8-(2-fluoro-3-(hydroxymethyl)phenyl)-7-methoxy-N-methyl-1,4-dihydrochromeno[4,3-c]pyrazole-3-carboxamide]
< 10 nM	10 to 100 nM	COc1cc2c(cc1-c1cn(CC(N)=O)nc1C)-c1c(c(C(=O)N(C)C(C)(C)C)nn1-c1cc(Cl)cc(Cl)c1)CO2 [Compound 142]
< 10 nM	10 to 100 nM	COc1cc2c(cc1-c1cncc(C(N)=O)c1)-c1c(c(C(=O)N(C)C(C)(C)C)nn1-c1ccsc1)CO2 [Compound 167]
< 10 nM	10 to 100 nM	COc1cc2c(cc1CC(C)C)-c1c(c(C(=O)N3CCC(=O)CC3(C)C)nn1-c1ccsc1)CO2 [Compound 125, 1-(8-isobutyl-7-methoxy-1-(thiophen-3-yl)-1,4-dihydrochromeno[4,3-c]pyrazole-3-carbonyl)-2,2-dimethylpiperidin-4-one]
< 10 nM	10 to 100 nM	COc1cc2c(cc1-c1nn(C)cc1C#N)-c1c(c(C(=O)N(C)C(C)(C)C)nn1-c1cc(F)cc(F)c1)CO2 [Compound 149]
< 10 nM	< 10 nM	COc1cc2c(cc1-c1cncc(NC(C)=O)c1)-c1c(c(C(=O)N(C)C(C)(C)C)nn1-c1cc(Cl)cc(Cl)c1)CO2 [Compound 182, 8-(5-acetamidopyridin-3-yl)-N-tert-butyl-1-(3,5-dichlorophenyl)-7-methoxy-N-methyl-1,4-dihydrochromeno[4,3-c]pyrazole-3-carboxamide]
< 10 nM	10 to 100 nM	COc1cc(OC)cc(-n2nc(C(=O)N3CCOCC3(C)C)c3c2-c2cc(-c4cncc(C(N)=O)c4)c(OC)cc2OC3)c1 [Compound 159]
